Measured values from patent EP0745599A2, “1-(3-Heterocyclylphenyl)-s-triazine-2,4,6-oxo or thiotrione herbicidal agents” (American Cyanamid Company, priority 1995, dated 1996).

Tests used:
Type in all cases: in vivo
Settings in all cases: rated four to five weeks after treatment
CASSIA OBTUSIFOLIA, L. [1] = test: Preemergence herbicidal evaluation, CASOB (Sicklepod)
From the text: (§1) Results of herbicide evaluation are expressed on a rating scale (0-9). The scale is based upon a visual observation of plant stand, vigor, malformation, size, chlorosis and overall plant appearance as compared with a control.
(§2) The preemergence herbicidal activity of the test compounds of the present invention is exemplified by the following tests in which the seeds of a variety of monocotyledonous and dicotyledonous plants are separately mixed with potting soil and planted on top of approximately one inch of soil in separate pint cups. After planting, the cups are sprayed with the selected aqueous acetone solution containing test compound in sufficient quantity to provide the equivalent of about 0.125 to 0.50 kg per hectare of test compound per cup. The treated cups are then placed on greenhouse benches, watered and cared for in accordance with conventional greenhouse procedures. From four to five weeks after treatment, the tests are terminated and each cup is examined and rated according to the rating system provided in Example 42.

CASSIA OBTUSIFOLIA, L. [2] = test: Postemergence herbicidal evaluation, CASOB (Sicklepod)
Procedure: (§3) In the tests, seedling plants are grown in jiffy flats for about two weeks. The test compounds are dispersed in 50/50 acetone/water mixtures containing 0.5% TWEEN®20, a polyoxyethylene sorbitan monolaurate surfactant of Atlas Chemical Industries, in sufficient quantities to provide the equivalent of about 0.125 kg to 0.500 kg per hectare of active compound when applied to the plants through a spray nozzle operating at 40 psi for a predetermined time. After spraying, the plants are placed on greenhouse benches and are cared for in the usual manner, commensurate with conventional greenhouse practices. From four to five weeks after treatment, the seedling plants are examined and rated according to the rating system set forth below. Where more than one test is involved for a given compound, the data are averaged.
as §1

[3] = tested on: SETARIA VIRIDIS, (L) BEAU; test: Preemergence herbicidal evaluation, SETVI (Foxtail, Green)
From the text: as §1, §2

GALIUM APARINE = test: Preemergence herbicidal evaluation, GALAP (Galium)
From the text: as §1, §2

[4] = tested on: ORYZA SATIVA, L. TEBONNET; test: Postemergence herbicidal evaluation, ORYSAT (Rice, Tebonnet)
Procedure: as §3, §1

CHENOPODIUM ALBUM, L. [5] = test: Preemergence herbicidal evaluation, CHEAL (Lambsquarters, Common)
From the text: as §1, §2

[6] = tested on: ECHINOCHLOA CRUS-GALLI, (L) BEAU; test: Preemergence herbicidal evaluation, ECHCG (Barnyardgrass)
From the text: as §1, §2

[7] = tested on: SETARIA VIRIDIS, (L) BEAU; test: Postemergence herbicidal evaluation, SETVI (Foxtail, Green)
Procedure: as §3, §1

[8] = tested on: AMBROSIA ARTEMISIIFOLIA, L.; test: Preemergence herbicidal evaluation, AMBEL (Ragweed, Common)
From the text: as §1, §2

[9] = tested on: TRITICUM AESTIVUM, CV. APOLLO; test: Preemergence herbicidal evaluation, TRZAWO (Wheat, Winter, CV. APOLLO)
From the text: as §1, §2

[10] = tested on: ECHINOCHLOA CRUS-GALLI, (L) BEAU; test: Postemergence herbicidal evaluation, ECHCG (Barnyardgrass)
Procedure: as §3, §1

[11] = tested on: TRITICUM AESTIVUM, CV. APOLLO; test: Postemergence herbicidal evaluation, TRZAWO (Wheat, Winter, CV. APOLLO)
Procedure: as §3, §1

[12] = tested on: ABUTILON THEOPHRASTI, MEDIC.; test: Preemergence herbicidal evaluation, ABUTH (Velvetleaf)
From the text: as §1, §2

[13] = tested on: GLYCINE MAX(L)MERR. CV. WILLIAMS; test: Preemergence herbicidal evaluation, GLXMAW (Soybean, Williams)
From the text: as §1, §2

IPOMOEA SPP. = test: Preemergence herbicidal evaluation, IPOSS (Morningglory Spp.)
From the text: as §1, §2

ZEA MAYS L. = test: Preemergence herbicidal evaluation, ZEAMX (Corn, Field)
From the text: as §1, §2

[14] = tested on: ORYZA SATIVA, L. TEBONNET; test: Preemergence herbicidal evaluation, ORYSAT (Rice, Tebonnet)
From the text: as §1, §2

CHENOPODIUM ALBUM, L. [15] = test: Postemergence herbicidal evaluation, CHEAL (Lambsquarters, Common)
Procedure: as §3, §1

CCOC(=O)Cn1c(=O)n(CC(=O)OC(C)(C)C)c(=O)n(-c2ccc(F)c(N3C(=O)C4=C(CCCC4)C3=O)c2)c1=O [Compound 8, 5-[3-(1-Cyclohexene-1,2-dicarboximido)-4-fluorophenyl]dihydro-2,4,6-trioxo-s-tri-azine-1,3(2H,4H)-diacetic acid, 1-tert-butyl, ethyl ester]
Herbicide rating (0-9) CASOB (CASSIA OBTUSIFOLIA, L. [1]; 0.125 kg/ha): 0.0 | Herbicide rating (0-9) CASOB (CASSIA OBTUSIFOLIA, L. [1]; 0.250 kg/ha): 0.0 | Herbicide rating (0-9) CASOB (CASSIA OBTUSIFOLIA, L. [1]; 0.500 kg/ha): 0.0 | Herbicide rating (0-9) CASOB (CASSIA OBTUSIFOLIA, L. [2]; 0.125 kg/ha): 0.0 | Herbicide rating (0-9) CASOB (CASSIA OBTUSIFOLIA, L. [2]; 0.250 kg/ha): 0.0 | Herbicide rating (0-9) CASOB (CASSIA OBTUSIFOLIA, L. [2]; 0.500 kg/ha): 0.0 | Herbicide rating (0-9) SETVI ([3]; 0.125 kg/ha): 0.0 | Herbicide rating (0-9) SETVI ([3]; 0.250 kg/ha): 0.0 | Herbicide rating (0-9) SETVI ([3]; 0.500 kg/ha): 0.0 | Herbicide rating (0-9) GALAP (GALIUM APARINE; 0.125 kg/ha): 0.0 | Herbicide rating (0-9) GALAP (GALIUM APARINE; 0.250 kg/ha): 0.0 | Herbicide rating (0-9) GALAP (GALIUM APARINE; 0.500 kg/ha): 0.0 | Herbicide rating (0-9) ORYSAT ([4]; 0.125 kg/ha): 1.5 | Herbicide rating (0-9) ORYSAT ([4]; 0.250 kg/ha): 1.5 | Herbicide rating (0-9) ORYSAT ([4]; 0.500 kg/ha): 1.5 | Herbicide rating (0-9) CHEAL (CHENOPODIUM ALBUM, L. [5]; 0.125 kg/ha): 0.0 | Herbicide rating (0-9) CHEAL (CHENOPODIUM ALBUM, L. [5]; 0.250 kg/ha): 0.0 | Herbicide rating (0-9) CHEAL (CHENOPODIUM ALBUM, L. [5]; 0.500 kg/ha): 0.0 | Herbicide rating (0-9) ECHCG ([6]; 0.125 kg/ha): 0.0 | Herbicide rating (0-9) ECHCG ([6]; 0.250 kg/ha): 0.0 | Herbicide rating (0-9) ECHCG ([6]; 0.500 kg/ha): 0.0 | Herbicide rating (0-9) SETVI ([7]; 0.125 kg/ha): 0.0 | Herbicide rating (0-9) SETVI ([7]; 0.250 kg/ha): 0.0 | Herbicide rating (0-9) SETVI ([7]; 0.500 kg/ha): 0.0 | Herbicide rating (0-9) AMBEL ([8]; 0.125 kg/ha): 0.0 | Herbicide rating (0-9) AMBEL ([8]; 0.250 kg/ha): 0.0 | Herbicide rating (0-9) AMBEL ([8]; 0.500 kg/ha): 0.0 | Herbicide rating (0-9) TRZAWO ([9]; 0.125 kg/ha): 0.0 | Herbicide rating (0-9) TRZAWO ([9]; 0.250 kg/ha): 0.0 | Herbicide rating (0-9) TRZAWO ([9]; 0.500 kg/ha): 0.0 | Herbicide rating (0-9) ECHCG ([10]; 0.125 kg/ha): 0.0 | Herbicide rating (0-9) ECHCG ([10]; 0.250 kg/ha): 0.0 | Herbicide rating (0-9) ECHCG ([10]; 0.500 kg/ha): 0.0 | Herbicide rating (0-9) TRZAWO ([11]; 0.125 kg/ha): 0.5 | Herbicide rating (0-9) TRZAWO ([11]; 0.250 kg/ha): 0.5 | Herbicide rating (0-9) TRZAWO ([11]; 0.500 kg/ha): 0.5 | Herbicide rating (0-9) ABUTH ([12]; 0.125 kg/ha): 0.0 | Herbicide rating (0-9) ABUTH ([12]; 0.250 kg/ha): 0.0 | Herbicide rating (0-9) ABUTH ([12]; 0.500 kg/ha): 0.0 | Herbicide rating (0-9) GLXMAW ([13]; 0.125 kg/ha): 0.0 | Herbicide rating (0-9) GLXMAW ([13]; 0.250 kg/ha): 0.0 | Herbicide rating (0-9) GLXMAW ([13]; 0.500 kg/ha): 0.0 | Herbicide rating (0-9) IPOSS (IPOMOEA SPP.; 0.125 kg/ha): 0.0 | Herbicide rating (0-9) IPOSS (IPOMOEA SPP.; 0.250 kg/ha): 0.0 | Herbicide rating (0-9) IPOSS (IPOMOEA SPP.; 0.500 kg/ha): 0.0 | Herbicide rating (0-9) ZEAMX (ZEA MAYS L.; 0.125 kg/ha): 0.0 | Herbicide rating (0-9) ZEAMX (ZEA MAYS L.; 0.250 kg/ha): 0.0 | Herbicide rating (0-9) ZEAMX (ZEA MAYS L.; 0.500 kg/ha): 0.0 | Herbicide rating (0-9) ORYSAT ([14]; 0.125 kg/ha): 0.0 | Herbicide rating (0-9) ORYSAT ([14]; 0.250 kg/ha): 0.0 | Herbicide rating (0-9) ORYSAT ([14]; 0.500 kg/ha): 0.0

CC(C)OC(=O)Cn1c(=O)n(C)c(=O)n(-c2cc(N3C(=O)c4cccc(F)c4C3=O)c(F)cc2Cl)c1=O [Compound 11, Isopropyl 3-[2-chloro-4-fluoro-5-(3-fluoro-phthalimido)phenyl]tetrahydro-5-methyl-2,4,6-trioxo-s-triazine-1(2H)-acetate]
Herbicide rating (0-9) CASOB (CASSIA OBTUSIFOLIA, L. [1]; 0.125 kg/ha): 0.0 | Herbicide rating (0-9) CASOB (CASSIA OBTUSIFOLIA, L. [1]; 0.250 kg/ha): 0.0 | Herbicide rating (0-9) CASOB (CASSIA OBTUSIFOLIA, L. [1]; 0.500 kg/ha): 0.0 | Herbicide rating (0-9) SETVI ([3]; 0.125 kg/ha): 0.0 | Herbicide rating (0-9) SETVI ([3]; 0.250 kg/ha): 0.0 | Herbicide rating (0-9) SETVI ([3]; 0.500 kg/ha): 0.0 | Herbicide rating (0-9) CHEAL (CHENOPODIUM ALBUM, L. [5]; 0.125 kg/ha): 9.0 | Herbicide rating (0-9) CHEAL (CHENOPODIUM ALBUM, L. [5]; 0.250 kg/ha): 9.0 | Herbicide rating (0-9) CHEAL (CHENOPODIUM ALBUM, L. [5]; 0.500 kg/ha): 9.0 | Herbicide rating (0-9) ECHCG ([6]; 0.125 kg/ha): 0.0 | Herbicide rating (0-9) ECHCG ([6]; 0.250 kg/ha): 0.0 | Herbicide rating (0-9) ECHCG ([6]; 0.500 kg/ha): 0.0 | Herbicide rating (0-9) AMBEL ([8]; 0.125 kg/ha): 0.0 | Herbicide rating (0-9) AMBEL ([8]; 0.250 kg/ha): 0.0 | Herbicide rating (0-9) AMBEL ([8]; 0.500 kg/ha): 0.0 | Herbicide rating (0-9) TRZAWO ([9]; 0.125 kg/ha): 0.0 | Herbicide rating (0-9) TRZAWO ([9]; 0.250 kg/ha): 0.0 | Herbicide rating (0-9) TRZAWO ([9]; 0.500 kg/ha): 0.0 | Herbicide rating (0-9) ECHCG ([10]; 0.125 kg/ha): 3.0 | Herbicide rating (0-9) ECHCG ([10]; 0.250 kg/ha): 3.0 | Herbicide rating (0-9) ECHCG ([10]; 0.500 kg/ha): 3.0 | Herbicide rating (0-9) GLXMAW ([13]; 0.125 kg/ha): 0.0 | Herbicide rating (0-9) GLXMAW ([13]; 0.250 kg/ha): 0.0 | Herbicide rating (0-9) GLXMAW ([13]; 0.500 kg/ha): 0.0 | Herbicide rating (0-9) IPOSS (IPOMOEA SPP.; 0.125 kg/ha): 0.0 | Herbicide rating (0-9) IPOSS (IPOMOEA SPP.; 0.250 kg/ha): 0.0 | Herbicide rating (0-9) IPOSS (IPOMOEA SPP.; 0.500 kg/ha): 0.0 | Herbicide rating (0-9) ZEAMX (ZEA MAYS L.; 0.125 kg/ha): 0.0 | Herbicide rating (0-9) ZEAMX (ZEA MAYS L.; 0.250 kg/ha): 0.0 | Herbicide rating (0-9) ZEAMX (ZEA MAYS L.; 0.500 kg/ha): 0.0 | Herbicide rating (0-9) ORYSAT ([14]; 0.125 kg/ha): 0.0 | Herbicide rating (0-9) ORYSAT ([14]; 0.250 kg/ha): 0.0 | Herbicide rating (0-9) ORYSAT ([14]; 0.500 kg/ha): 0.0 | Herbicide rating (0-9) CHEAL (CHENOPODIUM ALBUM, L. [15]; 0.125 kg/ha): 9.0 | Herbicide rating (0-9) CHEAL (CHENOPODIUM ALBUM, L. [15]; 0.250 kg/ha): 9.0 | Herbicide rating (0-9) CHEAL (CHENOPODIUM ALBUM, L. [15]; 0.500 kg/ha): 9.0
